{"source": "patent US9113629B2", "about": "“4-amino-6-(4-substituted-phenyl)-picolinates and 6-amino-2-(4-substituted-phenyl)-pyrimidine-4-carboxylates and their use as herbicides” (DOW AGROSCIENCES LLC, priority 2013, dated 2015)", "key": {"[1]": {"tested_on": "Key Broadleaf Weed and Crop Species", "assay": "Post-emergent Test II herbicidal activity (Table 5)", "type": "in vivo", "settings": "post-emergence, 336 h, 14 days after application; for pest or weed control at 140 g/ha: application rate 140 g ai/ha", "how_it_was_run": "(§1)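 Visual injury ratings (0 = no injury, 100 = complete kill) were taken 14 d after treatment, relative to untreated plants. Seedlings at the first–second true leaf stage received overhead spray at 187 L/ha; the highest rate was serially diluted to ½×, ¼×, ⅛× and 1/16×.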"}, "[2]": {"tested_on": "Key Grass and Sedge Weeds as well as Grass Crops", "assay": "Post-emergent Test II herbicidal activity (Table 6)", "type": "in vivo", "settings": "post-emergence, 336 h; for pest or weed control at 70 g/ha: application rate 70 g ai/ha; for pest or weed control at 140 g/ha: application rate 140 g ai/ha", "how_it_was_run": "as §1"}, "[3]": {"settings": "CYPES: yellow nutsedge (Cyperus esculentus), read-out: Visual Growth Reduction (%) 14 Days After Application, CYPES"}, "[4]": {"settings": "DIGSA: crabgrass (Digitaria sanguinalis), read-out: Visual Growth Reduction (%) 14 Days After Application, DIGSA"}, "[5]": {"settings": "ECHCG: barnyardgrass (Echinochloa crus-galli), read-out: Visual Growth Reduction (%) 14 Days After Application, ECHCG"}, "[6]": {"settings": "ORYSA: rice (Oryza sativa), read-out: Visual Growth Reduction (%) 14 Days After Application, ORYSA"}, "[7]": {"settings": "SETFA: giant foxtail (Setaria faberi), read-out: Visual Growth Reduction (%) 14 Days After Application, SETFA"}, "[8]": {"settings": "SORVU: grain sorghum (Sorghum vulgare), read-out: Visual Growth Reduction (%) 14 Days After Application, SORVU"}, "[9]": {"settings": "TRZSS (wheat, Triticum aestivum), read-out: Visual Growth Reduction (%) 14 Days After Application, TRZSS"}, "[10]": {"settings": "ZEAMX: maize, corn (Zea mays), read-out: Visual Growth Reduction (%) 14 Days After Application, ZEAMX"}, "[11]": {"settings": "Triticum aestivum, TRZSS (wheat), read-out: Visual Growth Reduction (%) 14 Days After Application, TRZSS"}}, "note": "Like-named read-outs stand apart in the source and are kept apart here."}
{"smiles": "COC(=O)c1nc(-c2cc(F)c(C)cc2F)cc(N)c1Cl", "note": "[Compound 179]", "values": [{"measurement": "pest or weed control at 70 g/ha", "setting": "[1]; ABUTH: velvetleaf (Abutilon theophrasti), 70 g ai/ha, post-emergent, read-out: Visual Growth Reduction (%) 14 Days After Application ABUTH", "value": "95 to 100", "unit": "%"}, {"measurement": "pest or weed control at 140 g/ha", "setting": "[1]; ABUTH: velvetleaf (Abutilon theophrasti), post-emergent, read-out: Visual Growth Reduction (%) 14 Days After Application, ABUTH", "value": "95 to 100", "unit": "%"}, {"measurement": "pest or weed control at 70 g/ha", "setting": "[1]; AMARE: redroot pigweed (Amaranthus retroflexus), 70 g ai/ha, post-emergent, read-out: Visual Growth Reduction (%) 14 Days After Application AMARE", "value": "95 to 100", "unit": "%"}, {"measurement": "pest or weed control at 140 g/ha", "setting": "[1]; AMARE: redroot pigweed (Amaranthus retroflexus), post-emergent, read-out: Visual Growth Reduction (%) 14 Days After Application, AMARE", "value": "95 to 100", "unit": "%"}, {"measurement": "pest or weed control at 70 g/ha", "setting": "[1]; BRSNN: oilseed-rape, canola (Brassica napus), 70 g ai/ha, post-emergent, read-out: Visual Growth Reduction (%) 14 Days After Application BRSNN", "value": "30 to 44", "unit": "%"}, {"measurement": "pest or weed control at 140 g/ha", "setting": "[1]; BRSNN: oilseed-rape, canola (Brassica napus), post-emergent, read-out: Visual Growth Reduction (%) 14 Days After Application, BRSNN", "value": "45 to 59", "unit": "%"}, {"measurement": "pest or weed control at 70 g/ha", "setting": "[1]; CHEAL: lambsquarters (Chenopodium album), 70 g ai/ha, post-emergent, read-out: Visual Growth Reduction (%) 14 Days After Application CHEAL", "value": "95 to 100", "unit": "%"}, {"measurement": "pest or weed control at 140 g/ha", "setting": "[1]; CHEAL: lambsquarters (Chenopodium album), post-emergent, read-out: Visual Growth Reduction (%) 14 Days After Application, CHEAL", "value": "95 to 100", "unit": "%"}, {"measurement": "pest or weed control at 70 g/ha", "setting": "[1]; EPHHL: wild poinsettia (Euphorbia heterophylla), 70 g ai/ha, post-emergent, read-out: Visual Growth Reduction (%) 14 Days After Application EPHHL", "value": "95 to 100", "unit": "%"}, {"measurement": "pest or weed control at 140 g/ha", "setting": "[1]; EPHHL: wild poinsettia (Euphorbia heterophylla), post-emergent, read-out: Visual Growth Reduction (%) 14 Days After Application, EPHHL", "value": "95 to 100", "unit": "%"}, {"measurement": "pest or weed control at 70 g/ha", "setting": "[1]; HELAN: sunflower (Helianthus annuus), 70 g ai/ha, post-emergent, read-out: Visual Growth Reduction (%) 14 Days After Application HELAN", "value": "85 to 94", "unit": "%"}, {"measurement": "pest or weed control at 140 g/ha", "setting": "[1]; HELAN: sunflower (Helianthus annuus), post-emergent, read-out: Visual Growth Reduction (%) 14 Days After Application, HELAN", "value": "85 to 94", "unit": "%"}, {"measurement": "pest or weed control at 70 g/ha", "setting": "[1]; VIOTR: wild pansy (Viola tricolor), 70 g ai/ha, post-emergent, read-out: Visual Growth Reduction (%) 14 Days After Application VIOTR", "value": "0 to 29", "unit": "%"}, {"measurement": "pest or weed control at 140 g/ha", "setting": "[1]; VIOTR: wild pansy (Viola tricolor), post-emergent, read-out: Visual Growth Reduction (%) 14 Days After Application, VIOTR", "value": "0 to 29", "unit": "%"}, {"measurement": "pest or weed control at 70 g/ha", "setting": "[2]; [3]", "value": "0 to 29", "unit": "%"}, {"measurement": "pest or weed control at 140 g/ha", "setting": "[2]; [3]", "value": "0 to 29", "unit": "%"}, {"measurement": "pest or weed control at 70 g/ha", "setting": "[2]; [4]", "value": "0 to 29", "unit": "%"}, {"measurement": "pest or weed control at 140 g/ha", "setting": "[2]; [4]", "value": "0 to 29", "unit": "%"}, {"measurement": "pest or weed control at 70 g/ha", "setting": "[2]; [5]", "value": "0 to 29", "unit": "%"}, {"measurement": "pest or weed control at 140 g/ha", "setting": "[2]; [5]", "value": "30 to 44", "unit": "%"}, {"measurement": "pest or weed control at 70 g/ha", "setting": "[2]; [6]", "value": "0 to 29", "unit": "%"}, {"measurement": "pest or weed control at 140 g/ha", "setting": "[2]; [6]", "value": "0 to 29", "unit": "%"}, {"measurement": "pest or weed control at 70 g/ha", "setting": "[2]; [7]", "value": "0 to 29", "unit": "%"}, {"measurement": "pest or weed control at 140 g/ha", "setting": "[2]; [7]", "value": "0 to 29", "unit": "%"}, {"measurement": "pest or weed control at 70 g/ha", "setting": "[2]; [8]", "value": "0 to 29", "unit": "%"}, {"measurement": "pest or weed control at 140 g/ha", "setting": "[2]; [8]", "value": "45 to 59", "unit": "%"}, {"measurement": "pest or weed control at 70 g/ha", "setting": "[2]; [9]", "value": "0 to 29", "unit": "%"}, {"measurement": "pest or weed control at 140 g/ha", "setting": "[2]; [9]", "value": "0 to 29", "unit": "%"}, {"measurement": "pest or weed control at 70 g/ha", "setting": "[2]; [10]", "value": "0 to 29", "unit": "%"}, {"measurement": "pest or weed control at 140 g/ha", "setting": "[2]; [10]", "value": "0 to 29", "unit": "%"}, {"measurement": "melting point", "value": "137.2 to 138.8", "unit": "°C"}]}
{"smiles": "COC(=O)c1nc(-c2ccc(I)c(F)c2F)cc(N)c1Cl", "note": "[Compound 129, Methyl 4-amino-3-chloro-6-(2,3-difluoro-4-iodophenyl)picolinate]", "values": [{"measurement": "pest or weed control at 70 g/ha", "setting": "[1]; ABUTH: velvetleaf (Abutilon theophrasti), application rate 70 g ai/ha, read-out: Visual Growth Reduction (%) 14 Days After Application, ABUTH", "value": "95 to 100", "unit": "%"}, {"measurement": "pest or weed control at 140 g/ha", "setting": "[1]; ABUTH: velvetleaf (Abutilon theophrasti), read-out: Visual Growth Reduction (%) 14 Days After Application, ABUTH", "value": "95 to 100", "unit": "%"}, {"measurement": "pest or weed control at 70 g/ha", "setting": "[1]; AMARE: redroot pigweed (Amaranthus retroflexus), application rate 70 g ai/ha, read-out: Visual Growth Reduction (%) 14 Days After Application, AMARE", "value": "95 to 100", "unit": "%"}, {"measurement": "pest or weed control at 140 g/ha", "setting": "[1]; AMARE: redroot pigweed (Amaranthus retroflexus), read-out: Visual Growth Reduction (%) 14 Days After Application, AMARE", "value": "95 to 100", "unit": "%"}, {"measurement": "pest or weed control at 70 g/ha", "setting": "[1]; BRSNN: oilseed-rape, canola (Brassica napus), application rate 70 g ai/ha, read-out: Visual Growth Reduction (%) 14 Days After Application, BRSNN", "value": "85 to 94", "unit": "%"}, {"measurement": "pest or weed control at 140 g/ha", "setting": "[1]; BRSNN: oilseed-rape, canola (Brassica napus), read-out: Visual Growth Reduction (%) 14 Days After Application, BRSNN", "value": "95 to 100", "unit": "%"}, {"measurement": "pest or weed control at 70 g/ha", "setting": "[1]; CHEAL: lambsquarters (Chenopodium album), application rate 70 g ai/ha, read-out: Visual Growth Reduction (%) 14 Days After Application, CHEAL", "value": "95 to 100", "unit": "%"}, {"measurement": "pest or weed control at 140 g/ha", "setting": "[1]; CHEAL: lambsquarters (Chenopodium album), read-out: Visual Growth Reduction (%) 14 Days After Application, CHEAL", "value": "95 to 100", "unit": "%"}, {"measurement": "pest or weed control at 70 g/ha", "setting": "[1]; EPHHL: wild poinsettia (Euphorbia heterophylla), application rate 70 g ai/ha, read-out: Visual Growth Reduction (%) 14 Days After Application, EPHHL", "value": "95 to 100", "unit": "%"}, {"measurement": "pest or weed control at 140 g/ha", "setting": "[1]; EPHHL: wild poinsettia (Euphorbia heterophylla), read-out: Visual Growth Reduction (%) 14 Days After Application, EPHHL", "value": "95 to 100", "unit": "%"}, {"measurement": "pest or weed control at 70 g/ha", "setting": "[1]; HELAN: sunflower (Helianthus annuus), application rate 70 g ai/ha, read-out: Visual Growth Reduction (%) 14 Days After Application, HELAN", "value": "75 to 84", "unit": "%"}, {"measurement": "pest or weed control at 140 g/ha", "setting": "[1]; HELAN: sunflower (Helianthus annuus), read-out: Visual Growth Reduction (%) 14 Days After Application, HELAN", "value": "85 to 94", "unit": "%"}, {"measurement": "pest or weed control at 70 g/ha", "setting": "[1]; VIOTR: wild pansy (Viola tricolor), application rate 70 g ai/ha, read-out: Visual Growth Reduction (%) 14 Days After Application, VIOTR", "value": "95 to 100", "unit": "%"}, {"measurement": "pest or weed control at 140 g/ha", "setting": "[1]; VIOTR: wild pansy (Viola tricolor), read-out: Visual Growth Reduction (%) 14 Days After Application, VIOTR", "value": "95 to 100", "unit": "%"}, {"measurement": "pest or weed control at 70 g/ha", "setting": "[2]; [11]", "value": "45 to 59", "unit": "%"}, {"measurement": "pest or weed control at 140 g/ha", "setting": "[2]; [11]", "value": "45 to 59", "unit": "%"}, {"measurement": "pest or weed control at 70 g/ha", "setting": "[2]; [3]", "value": "95 to 100", "unit": "%"}, {"measurement": "pest or weed control at 70 g/ha", "setting": "[2]; [4]", "value": "60 to 74", "unit": "%"}, {"measurement": "pest or weed control at 140 g/ha", "setting": "[2]; [4]", "value": "60 to 74", "unit": "%"}, {"measurement": "pest or weed control at 70 g/ha", "setting": "[2]; [5]", "value": "75 to 84", "unit": "%"}, {"measurement": "pest or weed control at 140 g/ha", "setting": "[2]; [5]", "value": "75 to 84", "unit": "%"}, {"measurement": "pest or weed control at 70 g/ha", "setting": "[2]; [6]", "value": "0 to 29", "unit": "%"}, {"measurement": "pest or weed control at 140 g/ha", "setting": "[2]; [6]", "value": "0 to 29", "unit": "%"}, {"measurement": "pest or weed control at 70 g/ha", "setting": "[2]; [8]", "value": "95 to 100", "unit": "%"}, {"measurement": "pest or weed control at 140 g/ha", "setting": "[2]; [8]", "value": "95 to 100", "unit": "%"}, {"measurement": "pest or weed control at 70 g/ha", "setting": "[2]; [10]", "value": "60 to 74", "unit": "%"}, {"measurement": "pest or weed control at 140 g/ha", "setting": "[2]; [10]", "value": "75 to 84", "unit": "%"}, {"measurement": "melting point", "value": "172 to 174", "unit": "°C"}]}
